From EP0425443A1, “Injectable antiparasitic agent” (CIBA-GEIGY AG, priority 1989, dated 1991) come the findings set out here.

Each structure is given as a SMILES string. Converted amounts (≈) assume the structure as drawn.

This data set is described as follows: Solubility of the active substance in organic solvents. Format: physicochemical. The conditions noted are these: dmso and n-methylpyrrolidone, organic solvent or mixture; in Dimethylsulfoxid und N-Methylpyrrolidon; Gewicht-pro-Volumen-Prozent; read-out: Solubility (lösen). From the text: Injizierbare Zubereitungen stellen wegen der sehr genauen Dosierbarkeit auch kleiner Wirkstoffmengen, der leichten Anwendbarkeit und der geringfügigen Beunruhigung der zu behandelnden Tiere, insbesondere grösserer Nutztiere, wie beispielsweise Rinder, Schafe, Pferde und Esel, oftmals die günstigste Applikationsart dar. Bei der Verwendung von schwerlöslichen Substanzen wie insbesondere den Benzoylphenylharnstoffen in Form injizierbarer Formulierungen ergeben sich jedoch Probleme, wenn mit ihnen ein wirksamer Plasmaspiegel, d.h., eine gleichmässige Verteilung einer ausreichenden Wirkstoffmenge im Plasma, erreicht werden soll, weil das injizierte Material von der Gewebsflüssigkeit beeinflusst wird und damit beispielsweise die physikalisch-chemischen Eigenschaften besagten Materials so verändert werden können, dass ein erheblicher Anteil des injizierten Materials sehr rasch kristallisiert und dadurch an der Injektionsstelle oder in sehr naher Umgebung davon verbleibt. So lassen sich Benzoylharnstoffe, beispielsweise N-[3-(3-Chlor-5-trifluormethylpyridyl-2-oxy)-4-chlorphenyl]-N'-[2,6-difluorbenzoyl]-hamstoff, in Dimethylsulfoxid und N-Methylpyrrolidon (etwa 35 %, Prozentangaben bedeuten hier und im folgenden Gewichtpro-Volumen-Prozent) lösen. […]

Broadly, the solubility is the dissolved amount per volume that the medium holds. Turning to `O=C(NC(=O)c1c(F)cccc1F)Nc1ccc(Cl)c(Oc2ncc(C(F)(F)F)cc2Cl)c1` [N-[3-(3-Chlor-5-trifluormethylpyridyl-2-oxy)-4-chlorphenyl]-N'-[2,6-difluorbenzoyl]-harnstoff], the solubility is about 350 mg/mL (≈ 691 mM).
